In US20250084039A1, “4-SUBSTITUTED AMINOISOQUINOLINE DERIVATIVES” (Purdue Research Foundation, priority 2016, published 2025):
Values joined by “and” are separate entries in the source; they are usually repeats but may differ in a detail not shown here. Identical values can stand only once. Like-named read-outs stand apart in the source and are kept apart here.

Assays:
CTK/MATK = CTK/MATK (Homo sapiens (Human), UniProt P42679); assay: Reaction Biology HotSpot kinase assay; type: biochemical; conditions: 500 nM compound; for inhibition at 0.5 µM: read-out: Percentage kinase inhibition CTK/MATK
Sequence of CTK/MATK (P42679 whole entry): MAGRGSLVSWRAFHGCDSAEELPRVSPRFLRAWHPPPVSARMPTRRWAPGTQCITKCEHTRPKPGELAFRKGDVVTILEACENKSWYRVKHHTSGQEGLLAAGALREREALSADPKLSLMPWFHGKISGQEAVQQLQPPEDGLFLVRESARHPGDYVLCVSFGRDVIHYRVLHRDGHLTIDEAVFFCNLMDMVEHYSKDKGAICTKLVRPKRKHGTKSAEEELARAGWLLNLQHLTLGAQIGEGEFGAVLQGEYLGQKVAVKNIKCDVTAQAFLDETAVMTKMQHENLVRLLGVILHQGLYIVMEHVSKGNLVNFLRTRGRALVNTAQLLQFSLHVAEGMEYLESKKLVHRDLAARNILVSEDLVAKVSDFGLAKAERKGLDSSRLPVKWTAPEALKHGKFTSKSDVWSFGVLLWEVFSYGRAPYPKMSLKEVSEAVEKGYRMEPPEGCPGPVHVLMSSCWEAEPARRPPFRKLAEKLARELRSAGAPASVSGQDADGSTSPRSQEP
Summary of the method: (§1)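 Single-point screen, 500 nM cpd; 20 min preinc with enzyme/substrate; start with ATP + 33P-ATP, 100 μM final; 2 h RT; P81 filter capture. Buffer: 20 mM HEPES pH 7.5, 10 mM MgCl2, 1 mM EGTA, 0.02% Brij35, 1% DMSO. Data as % activity vs DMSO.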

LRRK2 = LRRK2 (Homo sapiens (Human), UniProt Q5S007); assay: Reaction Biology HotSpot kinase assay; type: biochemical; conditions: 500 nM compound; for inhibition at 0.5 µM: read-out: Percentage kinase inhibition LRRK2
Summary of the method: as §1

TAOK1 = TAOK1 (Homo sapiens (Human), UniProt Q7L7X3); assay: Reaction Biology HotSpot kinase assay; type: biochemical; conditions: 500 nM compound; for inhibition at 0.5 µM: read-out: Percentage kinase inhibition TAOK1
Sequence of TAOK1 (Q7L7X3 whole entry): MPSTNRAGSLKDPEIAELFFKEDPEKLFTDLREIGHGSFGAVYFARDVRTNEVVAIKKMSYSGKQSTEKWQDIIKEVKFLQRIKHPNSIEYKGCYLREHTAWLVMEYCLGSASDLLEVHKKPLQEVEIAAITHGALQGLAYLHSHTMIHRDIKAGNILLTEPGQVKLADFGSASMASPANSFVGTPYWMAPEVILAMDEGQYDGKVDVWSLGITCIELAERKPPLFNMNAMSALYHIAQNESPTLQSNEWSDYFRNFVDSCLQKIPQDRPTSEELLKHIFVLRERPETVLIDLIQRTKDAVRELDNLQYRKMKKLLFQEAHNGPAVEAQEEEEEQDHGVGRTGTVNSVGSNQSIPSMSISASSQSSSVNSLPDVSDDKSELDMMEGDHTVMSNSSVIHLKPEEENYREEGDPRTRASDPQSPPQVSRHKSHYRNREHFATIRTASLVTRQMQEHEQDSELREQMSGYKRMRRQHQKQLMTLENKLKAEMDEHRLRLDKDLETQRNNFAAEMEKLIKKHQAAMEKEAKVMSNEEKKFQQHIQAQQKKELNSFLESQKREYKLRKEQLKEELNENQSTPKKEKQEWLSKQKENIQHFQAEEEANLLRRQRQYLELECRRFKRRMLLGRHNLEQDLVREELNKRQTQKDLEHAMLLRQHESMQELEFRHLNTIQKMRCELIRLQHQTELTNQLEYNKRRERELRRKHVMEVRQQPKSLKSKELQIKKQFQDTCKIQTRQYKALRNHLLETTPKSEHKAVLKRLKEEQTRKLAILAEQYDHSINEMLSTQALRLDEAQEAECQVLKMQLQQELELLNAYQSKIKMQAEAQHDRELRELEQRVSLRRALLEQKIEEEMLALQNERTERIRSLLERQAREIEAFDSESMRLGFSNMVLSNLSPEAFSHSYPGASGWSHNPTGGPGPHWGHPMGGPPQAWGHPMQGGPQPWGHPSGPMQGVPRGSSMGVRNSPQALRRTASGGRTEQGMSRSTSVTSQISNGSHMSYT
Summary of the method: as §1

TRKC = TRKC (Homo sapiens (Human), UniProt Q16288); assay: Reaction Biology HotSpot kinase assay; type: biochemical; conditions: 500 nM compound, 100 μM radiolabeled ATP
Sequence of TRKC (Q16288 32-839): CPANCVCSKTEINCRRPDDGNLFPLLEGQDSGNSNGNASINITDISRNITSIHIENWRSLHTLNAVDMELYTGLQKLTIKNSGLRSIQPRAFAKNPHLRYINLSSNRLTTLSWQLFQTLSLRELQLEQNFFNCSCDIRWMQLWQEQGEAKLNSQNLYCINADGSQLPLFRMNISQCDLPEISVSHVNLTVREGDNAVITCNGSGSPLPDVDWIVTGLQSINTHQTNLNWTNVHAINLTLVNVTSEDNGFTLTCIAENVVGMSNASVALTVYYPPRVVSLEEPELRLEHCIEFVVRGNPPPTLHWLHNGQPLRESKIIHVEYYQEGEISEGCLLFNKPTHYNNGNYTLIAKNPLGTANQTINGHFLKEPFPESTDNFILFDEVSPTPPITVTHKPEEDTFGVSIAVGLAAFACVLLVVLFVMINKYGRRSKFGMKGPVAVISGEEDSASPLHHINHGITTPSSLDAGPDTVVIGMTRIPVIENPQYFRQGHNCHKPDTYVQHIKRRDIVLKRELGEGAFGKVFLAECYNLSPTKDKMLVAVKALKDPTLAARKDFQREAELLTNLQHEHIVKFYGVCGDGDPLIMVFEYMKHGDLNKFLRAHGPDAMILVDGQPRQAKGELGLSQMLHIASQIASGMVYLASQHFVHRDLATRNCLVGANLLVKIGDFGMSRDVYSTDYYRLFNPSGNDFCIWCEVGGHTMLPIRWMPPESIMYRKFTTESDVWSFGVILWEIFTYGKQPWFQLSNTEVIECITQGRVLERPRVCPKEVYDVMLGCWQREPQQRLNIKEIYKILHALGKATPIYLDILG
Summary of the method: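 Phosphotransfer from [γ-33P]ATP was quantified after filter binding on P81 paper. Conditions: 20 mM HEPES pH 7.5, 10 mM MgCl2, 0.1 mM Na3VO4, 2 mM DTT, 0.02 mg/mL BSA; ATP 100 μM final; 2 h at room temperature. Compound was dosed at 500 nM.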

HeLa = assay: Proliferation inhibition at single concentration (CellTiter-Blue); type: cell-based; conditions: 1 μM compound
MCF-7 = assay: as above; type: cell-based; conditions: 1 μM compound
MV4-11 = assay: IC50 determination (proliferation assay, CellTiter-Blue); type: cell-based
Summary of the method: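 MOLM14 and MV4-11 cells seeded about 18 h before compound addition (DMSO-diluted), then 72 h exposure.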

FLT3 = FLT3 (Homo sapiens (Human), UniProt P36888); assay: DiscoverX Kd Elect binding
Source text: (§2) Although the current drugs on the market or in clinical trials are relatively successful in killing the AML leukemia cells, they currently are unable to deal with secondary mutations that occur after TKI treatment, such as FLT3 ([…]).
HCK is expressed more in human primary leukemic stem cells than in human normal hematopoietic stem cells. […] Other protein kinases such as SYK, BRAF, p38 (p38MAPK), PDGFRα/β, FGFR1, RET, FLT4, Tie2 have also been linked to leukemia. […] (Table 9). The inhibition of the Src-kinase family could be important clinically because these kinases are downstream of FLT3. In the event of FLT3 mutation, the inhibition of the Src-family kinases could still lead to proliferation inhibition.

FLT3 (D835V) = FLT3 (D835V) (Homo sapiens (Human), UniProt P36888, D835V); assay: DiscoverX Kd Elect binding
Source text: as §2

FLT3 (ITD) = FLT3 (ITD) (Homo sapiens, UniProt P36888, ITD); assay: DiscoverX Kd Elect binding; conditions: Kd FLT3 (ITD)
Source text: as §2

ABL1 phosphorylated = ABL1 phosphorylated (Homo sapiens (Human), UniProt P00519); assay: DiscoverX Kd Elect binding
Sequence of ABL1 phosphorylated (P00519 whole entry): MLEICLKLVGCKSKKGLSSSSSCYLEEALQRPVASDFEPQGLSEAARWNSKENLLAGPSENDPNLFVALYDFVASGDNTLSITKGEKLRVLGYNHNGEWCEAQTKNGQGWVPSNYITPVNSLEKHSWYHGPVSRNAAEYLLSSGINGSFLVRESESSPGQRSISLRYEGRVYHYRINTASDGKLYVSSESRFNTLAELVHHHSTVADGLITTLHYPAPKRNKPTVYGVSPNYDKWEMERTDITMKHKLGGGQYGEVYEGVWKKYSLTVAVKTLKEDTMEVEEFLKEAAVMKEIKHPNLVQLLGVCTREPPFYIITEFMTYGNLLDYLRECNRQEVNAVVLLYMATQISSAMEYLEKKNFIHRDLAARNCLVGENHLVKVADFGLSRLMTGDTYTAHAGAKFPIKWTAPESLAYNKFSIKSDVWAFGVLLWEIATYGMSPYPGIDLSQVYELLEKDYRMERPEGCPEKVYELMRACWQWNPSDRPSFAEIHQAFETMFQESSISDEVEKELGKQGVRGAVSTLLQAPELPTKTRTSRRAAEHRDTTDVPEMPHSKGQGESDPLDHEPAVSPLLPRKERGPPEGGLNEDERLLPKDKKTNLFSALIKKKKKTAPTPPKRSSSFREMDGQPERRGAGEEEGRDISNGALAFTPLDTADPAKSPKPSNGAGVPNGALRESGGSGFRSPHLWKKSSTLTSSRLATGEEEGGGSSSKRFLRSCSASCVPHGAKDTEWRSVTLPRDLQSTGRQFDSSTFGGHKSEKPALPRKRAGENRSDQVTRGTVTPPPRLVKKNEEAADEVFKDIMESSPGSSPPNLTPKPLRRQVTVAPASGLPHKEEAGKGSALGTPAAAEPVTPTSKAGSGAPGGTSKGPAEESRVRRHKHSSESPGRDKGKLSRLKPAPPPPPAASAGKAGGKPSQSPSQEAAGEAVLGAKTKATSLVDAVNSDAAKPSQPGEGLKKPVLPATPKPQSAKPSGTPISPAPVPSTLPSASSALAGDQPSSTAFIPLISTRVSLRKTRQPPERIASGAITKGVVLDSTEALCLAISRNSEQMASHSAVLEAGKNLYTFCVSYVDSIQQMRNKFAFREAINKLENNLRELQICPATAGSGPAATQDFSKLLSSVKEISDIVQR

ABL1 non-phosphorylated = ABL1 non-phosphorylated (Homo sapiens (Human), UniProt P00519); assay: DiscoverX Kd Elect binding
Sequence of ABL1 non-phosphorylated (P00519 whole entry): as above

NCI H1703 (NSCLC) = assay: Activity against lung cancer cell line; type: cell-based; conditions: Homo sapiens, NCI-H1703
DAPK1 = DAPK1 (Homo sapiens (Human), UniProt P53355); assay: Reaction Biology HotSpot kinase assay; type: biochemical; conditions: 500 nM compound; read-out: Percentage kinase inhibition DAPK1
Summary of the method: as §1

FGFR2 = FGFR2 (Homo sapiens (Human), UniProt P21802); assay: Reaction Biology HotSpot kinase assay; type: biochemical; conditions: 500 nM compound; read-out: Percentage kinase inhibition FGFR2
Summary of the method: as §1

FGFR4 = FGFR4 (Homo sapiens (Human), UniProt P22455); assay: Reaction Biology HotSpot kinase assay; type: biochemical; conditions: 500 nM compound; read-out: Percentage kinase inhibition FGFR4
Summary of the method: as §1

PDGFRb = PDGFRb (Homo sapiens (Human), UniProt P09619); assay: Reaction Biology HotSpot kinase assay; type: biochemical; conditions: 500 nM compound; read-out: Percentage kinase inhibition PDGFRb
Sequence of PDGFRb (P09619 33-1106): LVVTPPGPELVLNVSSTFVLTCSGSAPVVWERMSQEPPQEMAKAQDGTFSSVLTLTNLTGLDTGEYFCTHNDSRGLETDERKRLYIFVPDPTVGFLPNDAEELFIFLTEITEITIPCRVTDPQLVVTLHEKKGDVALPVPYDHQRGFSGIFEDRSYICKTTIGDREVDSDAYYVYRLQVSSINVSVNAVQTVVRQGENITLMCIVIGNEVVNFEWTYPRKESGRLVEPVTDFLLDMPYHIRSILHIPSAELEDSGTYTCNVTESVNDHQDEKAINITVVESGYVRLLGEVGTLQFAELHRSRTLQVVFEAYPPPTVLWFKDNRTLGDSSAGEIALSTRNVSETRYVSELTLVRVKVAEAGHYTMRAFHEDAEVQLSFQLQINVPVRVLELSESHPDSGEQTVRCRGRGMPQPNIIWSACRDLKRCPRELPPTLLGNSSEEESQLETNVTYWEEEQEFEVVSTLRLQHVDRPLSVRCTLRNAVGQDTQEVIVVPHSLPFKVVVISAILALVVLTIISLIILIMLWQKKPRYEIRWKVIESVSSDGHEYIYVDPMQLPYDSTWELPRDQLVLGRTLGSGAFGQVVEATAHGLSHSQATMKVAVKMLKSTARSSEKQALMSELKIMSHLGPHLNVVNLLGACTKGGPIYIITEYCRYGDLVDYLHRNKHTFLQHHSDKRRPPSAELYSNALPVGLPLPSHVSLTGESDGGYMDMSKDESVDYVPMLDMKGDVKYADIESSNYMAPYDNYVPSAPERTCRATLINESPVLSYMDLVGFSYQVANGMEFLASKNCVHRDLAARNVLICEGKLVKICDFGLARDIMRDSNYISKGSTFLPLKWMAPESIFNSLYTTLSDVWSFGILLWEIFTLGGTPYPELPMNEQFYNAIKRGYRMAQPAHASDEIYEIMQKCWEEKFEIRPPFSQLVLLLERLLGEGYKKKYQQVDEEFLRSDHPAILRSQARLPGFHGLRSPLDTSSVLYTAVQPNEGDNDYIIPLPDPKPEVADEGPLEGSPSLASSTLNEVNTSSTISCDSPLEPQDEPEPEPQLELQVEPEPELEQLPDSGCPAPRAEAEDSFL
Summary of the method: as §1

RIPK2 = RIPK2 (Homo sapiens (Human), UniProt O43353); assay: Reaction Biology HotSpot kinase assay; type: biochemical; conditions: 500 nM compound; read-out: Percentage kinase inhibition RIPK2
Summary of the method: as §1

RIPK4 = RIPK4 (Homo sapiens (Human), UniProt P57078); assay: Reaction Biology HotSpot kinase assay; type: biochemical; conditions: 500 nM compound; read-out: Percentage kinase inhibition RIPK4
Summary of the method: as §1

Compound | IC50 (MV4-11) [nM] | inhibition at 0.5 µM (TRKC) [%] | Kd (FLT3) | Kd (FLT3 (D835V)) [nM] | Kd (FLT3 (ITD)) | Kd (ABL1 phosphorylated) [nM] | Kd (ABL1 non-phosphorylated) [nM] | proliferation inhibition in words, MV4-11 / AML (MV4-11) | IC50 (NCI H1703 (NSCLC)) [nM] | inhibition at 0.5 µM (DAPK1) [%] | inhibition at 0.5 µM (FGFR2) [%] | inhibition at 0.5 µM (FGFR4) [%] | inhibition at 0.5 µM (PDGFRb) [%] | inhibition at 0.5 µM (RIPK2) [%] | inhibition at 0.5 µM (RIPK4) [%] | IC50 (MV4-11; Homo sapiens, MV4-11) [nM] | inhibition at 0.5 µM (CTK/MATK) [%] | inhibition at 0.5 µM (LRRK2) [%] | inhibition at 0.5 µM (TAOK1) [%] | other results
CN(C)CC(O)CNC(=O)c1ccc(C#Cc2c(N)ncc3ccc(Cl)cc23)cc1 (centres unmarked) [HSM1702] | 71 ± 1.1 |  |  |  |  |  |  |  |  |  |  |  |  |  |  |  |  |  |  | Percentage kinase inhibition CTK/MATK (CTK/MATK): 0%; Percentage kinase inhibition LRRK2 (LRRK2): 40%; Percentage kinase inhibition TAOK1 (TAOK1): 12%; % inhibition of TrkC (TRKC): 81%; Percent inhibition of proliferation HeLa (HeLa): 17%; Percent inhibition of proliferation MCF-7 (MCF-7): 100%
Cc1ccc(C(=O)Nc2ccc(CN3CCN(C)CC3)c(C(F)(F)F)c2)cc1C#Cc1cnc(N)c2ncccc12 [HSN356, 3-((8-amino-1,7-naphthyridin-5-yl)ethynyl)-4-methyl-N-(4-((4-methylpiperazin-1-yl)methyl)-3-(trifluoromethyl)phenyl)benzamide] |  | 59 | 1.3 nM | 19 | 6.7 nM | 1.2 | 2.5 | potent proliferation inhibitors | 88 |  |  |  |  |  |  |  |  |  |  | 
Cc1ccc(C(=O)Nc2ccc(CN3CCN(C)CC3)c(C(F)(F)F)c2)cc1C#Cc1cc(N)nc2ccccc12 [HSN285] |  | 0 |  |  |  |  |  | neither potent inhibitors of FLT3 nor active against MV4-11 or MOLM-14 |  | 14 | 0 | 0 | 46 | 0 | 25 | 721 ± 5.8 |  |  |  | 
Cc1ccc(C(=O)Nc2ccc(CN3CCN(C)CC3)c(C(F)(F)F)c2)cc1C#Cc1cnc(N)c2ccccc12 [HSN334, 3-((1-aminoisoquinolin-4-yl)ethynyl)-4-methyl-N-(4-((4-methylpiperazin-1-yl)methyl)-3-(trifluoromethyl)phenyl)benzamide] | 1.38 ± 0.1 |  | 5.1 nM | 120 | 19 nM | 12 | 4.4 | potent proliferation inhibitors | 98 |  |  |  |  |  |  | < 1 |  |  |  | 
COc1cc2nc(N)nc(C#Cc3cc(C(=O)Nc4ccc(CN5CCN(C)CC5)c(C(F)(F)F)c4)ccc3C)c2cc1OC [HSN325] |  | 4 |  |  |  |  |  |  |  |  |  |  |  |  |  | 135 ± 5.87 | 5 | 0 | 0 | 
Cc1ccc(C(=O)Nc2ccc(CN3CCN(C)CC3)c(C(F)(F)F)c2)cc1C#Cc1c(N)ncc2ccc(Cl)cc12 [HSN286] |  | 91 | 6.5 nM and 7.2 nM | 120 | 27.6 nM and 26 nM | 7.9 | 7.2 |  | 50 | 9 | 96 | 82 | 96 | 25 | 32 |  | 0 | 6 | 0 | inhibition at 1 µM (HeLa; Homo sapiens, HeLa, read-out: Percent inhibition of proliferation HeLa): 100%; inhibition at 1 µM (MCF-7; Homo sapiens, MCF7, read-out: Percent inhibition of proliferation MCF-7): 100%
